Laboratory results: patent US8952024B2, “Herbicidal pyrimidone derivatives” (E I du Pont de Nemours and Company, priority 2009, dated 2015)
Like-named read-outs stand apart in the source and are kept apart here.

How the values were obtained:
Assay type in all cases: in vivo
[1] = test system: windgrass (Apera spica-venti); assay: Test B postemergence plant response; settings: Apera spica-venti, post-emergence, 360 h, Postemergence, read-out: Plant response rating, Windgrass
Method in brief: (§1)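 Plants at the 1- to 4-leaf stage (2 to 18 cm tall), grown in pots of peat moss/vermiculite medium with wetting agent and starter nutrients, received postemergence applications of test chemicals. After 13 to 15 days in a greenhouse, injury was rated visually against untreated controls on a 0 (no effect) to 100 (complete control) scale.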

[2] = test system: canarygrass (Phalaris minor); assay: Test B postemergence plant response; settings: Phalaris minor, post-emergence, 360 h, Postemergence, read-out: Plant response rating, Canarygrass
Method in brief: as §1

[3] = test system: winter barley (Hordeum vulgare); assay: Test B postemergence plant response; settings: Hordeum vulgare, post-emergence, Postemergence, read-out: Plant response rating, Barley
Method in brief: as §1

[4] = test system: chickweed (Stellaria media); assay: Test B postemergence plant response; settings: Stellaria media, post-emergence, 360 h, Postemergence, read-out: Plant response rating, Chickweed
Method in brief: as §1

[5] = test system: wheat (Triticum aestivum); assay: Test A pre-/postemergence plant response; settings: Triticum aestivum, 240 h; for plant injury at 125 g/ha: 125 g ai/ha; for plant injury at 500 g/ha: 500 g ai/ha
Method in brief: (§2)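 Injury was scored visually after roughly ten days against untreated controls, 0 = no effect, 100 = complete control. Test chemicals in a surfactant-containing non-phytotoxic solvent were sprayed either onto soil preemergence or onto one- to two-leaf, 2–10 cm plants postemergence.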

[6] = test system: pigweed (Amaranthus retroflexus); assay: Test A pre-/postemergence plant response; settings: Amaranthus retroflexus, 240 h; for pest or weed control at 125 g/ha: 125 g ai/ha; for pest or weed control at 500 g/ha: 500 g ai/ha
Method in brief: as §2

[7] = test system: barnyardgrass (Echinochloa crus-galli); assay: Test A pre-/postemergence plant response; settings: Echinochloa crus-galli, 240 h; for pest or weed control at 125 g/ha: 125 g ai/ha; for pest or weed control at 500 g/ha: 500 g ai/ha
Method in brief: as §2

[8] = test system: velvetleaf (Abutilon theophrasti); assay: Test A pre-/postemergence plant response; settings: Abutilon theophrasti, 240 h; for pest or weed control at 125 g/ha: 125 g ai/ha; for pest or weed control at 500 g/ha: 500 g ai/ha
Method in brief: as §2

corn (Zea mays) = assay: Test A pre-/postemergence plant response; settings: Zea mays, 240 h; for Corn plant response rating (crop injury, 0 = no effect, 100 = complete kill) at 125 g/ha: 125 g ai/ha
Method in brief: as §2

[9] = test system: large crabgrass (Digitaria sanguinalis); assay: Test A pre-/postemergence plant response; settings: Digitaria sanguinalis, 240 h; for pest or weed control at 125 g/ha: 125 g ai/ha; for pest or weed control at 500 g/ha: 500 g ai/ha
Method in brief: as §2

[10] = test system: morningglory (Ipomoea spp.); assay: Test A pre-/postemergence plant response; settings: Ipomoea, 240 h; for pest or weed control at 125 g/ha: 125 g ai/ha; for pest or weed control at 500 g/ha: 500 g ai/ha
Method in brief: as §2

[11] = test system: giant foxtail (Setaria faberii); assay: Test A pre-/postemergence plant response; settings: Setaria faberi, 240 h; for pest or weed control at 125 g/ha: 125 g ai/ha; for pest or weed control at 500 g/ha: 500 g ai/ha
Method in brief: as §2

[12] = 31 g ai/ha, 0 to 100 scale (0 no effect, 100 complete control)
[13] = 62 g ai/ha, scale 0 to 100 (0 no effect, 100 complete control)
[14] = 125 g ai/ha, scale 0 (no effect) to 100 (complete control), 13 to 15 days
[15] = 250 g ai/ha, scale 0 to 100 (0 no effect, 100 complete control), 13 to 15 days
[16] = pre-emergence, Preemergence, 0 to 100 scale, 0 = no effect, 100 = complete control, read-out: Plant response rating, Wheat
[17] = pre-emergence, Preemergence, 0 to 100 scale, 0 = no effect, 100 = complete control, read-out: Plant response rating, Pigweed
[18] = pre-emergence, Preemergence, 0 to 100 scale, 0 = no effect, 100 = complete control, read-out: Plant response rating, Barnyardgrass
[19] = pre-emergence, Preemergence, 0 to 100 scale, 0 = no effect, 100 = complete control, read-out: Plant response rating, Velvetleaf
[20] = pre-emergence, Preemergence, 0 to 100 scale, 0 = no effect, 100 = complete control, read-out: Plant response rating, Crabgrass, Large
[21] = pre-emergence, Preemergence, 0 to 100 scale, 0 = no effect, 100 = complete control, read-out: Plant response rating, Morningglory
[22] = pre-emergence, Preemergence, 0 to 100 scale, 0 = no effect, 100 = complete control, read-out: Plant response rating, Foxtail, Giant

COCCn1c(-c2cc(F)cc(F)c2)ncc(C(=O)C2=C(O)C3CCC(C3)C2=O)c1=O (stereo not drawn) [Compound 243, 2-(3,5-difluorophenyl)-5-[(2-hydroxy-4-oxobicyclo[3.2.1]oct-2-en-3-yl)carbonyl]-3-(2-methoxyethyl)-4(3H)-pyrimidinone]
pest or weed control at 31 g/ha [1, 12]: 80%
pest or weed control at 62 g/ha [1, 13]: 90%
pest or weed control at 125 g/ha [1, 14]: 98%
pest or weed control at 250 g/ha [1, 15]: 100%
pest or weed control at 31 g/ha [2, 12]: 90%
pest or weed control at 62 g/ha [2, 13]: 98%
pest or weed control at 125 g/ha [2, 14]: 100%
pest or weed control at 250 g/ha [2, 15]: 100%
plant injury at 31 g/ha [3, 12]: 60%
plant injury at 62 g/ha [3, 13]: 90%
plant injury at 125 g/ha [3, 14]: 95%
plant injury at 250 g/ha [3, 15]: 95%
pest or weed control at 31 g/ha [4, 12]: 80%
pest or weed control at 62 g/ha [4, 13]: 100%
pest or weed control at 125 g/ha [4, 14]: 100%
pest or weed control at 250 g/ha [4, 15]: 100%
plant injury at 125 g/ha ([5]; post-emergence, Postemergence, 0 to 100 scale where 0 is no effect and 100 is complete control, read-out: Plant response rating, Wheat): 70%
plant injury at 500 g/ha ([5]; post-emergence, Postemergence, visual injury, 0 to 100 scale (0 no effect, 100 complete control), approx. ten days, read-out: Wheat plant response rating): 90%
plant injury at 125 g/ha [5, 16]: 30%
plant injury at 500 g/ha [5, 16]: 70%
pest or weed control at 125 g/ha ([6]; post-emergence, Postemergence, 0 to 100 scale where 0 is no effect and 100 is complete control, read-out: Plant response rating, Pigweed): 100%
pest or weed control at 500 g/ha ([6]; post-emergence, Postemergence, visual injury, 0 to 100 scale (0 no effect, 100 complete control), approx. ten days, read-out: Pigweed plant response rating): 100%
pest or weed control at 125 g/ha [6, 17]: 100%
pest or weed control at 500 g/ha [6, 17]: 100%
pest or weed control at 125 g/ha ([7]; post-emergence, Postemergence, 0 to 100 scale where 0 is no effect and 100 is complete control, read-out: Plant response rating, Barnyardgrass): 100%
pest or weed control at 500 g/ha ([7]; post-emergence, Postemergence, visual injury, 0 to 100 scale (0 no effect, 100 complete control), approx. ten days, read-out: Barnyardgrass plant response rating): 100%
pest or weed control at 125 g/ha [7, 18]: 70%
pest or weed control at 500 g/ha [7, 18]: 100%
pest or weed control at 125 g/ha ([8]; post-emergence, Postemergence, 0 to 100 scale where 0 is no effect and 100 is complete control, read-out: Plant response rating, Velvetleaf): 100%
pest or weed control at 500 g/ha ([8]; post-emergence, Postemergence, visual injury, 0 to 100 scale (0 no effect, 100 complete control), approx. ten days, read-out: Velvetleaf plant response rating): 100%
pest or weed control at 125 g/ha [8, 19]: 90%
pest or weed control at 500 g/ha [8, 19]: 100%
Corn plant response rating (crop injury, 0 = no effect, 100 = complete kill) at 125 g/ha (corn (Zea mays); post-emergence, Postemergence, 0 to 100 scale where 0 is no effect and 100 is complete control): 70%
plant injury at 500 g/ha (corn (Zea mays); post-emergence, Postemergence, 500 g ai/ha, visual injury, 0 to 100 scale (0 no effect, 100 complete control), approx. ten days, read-out: Corn plant response rating): 90%
Corn plant response rating (crop injury, 0 = no effect, 100 = complete kill) at 125 g/ha (corn (Zea mays); pre-emergence, Preemergence, 0 to 100 scale, 0 = no effect, 100 = complete control): 30%
Corn plant response rating (crop injury, 0 = no effect, 100 = complete kill) at 500 g/ha (corn (Zea mays); pre-emergence, Preemergence, 500 g ai/ha, 0 to 100 scale, 0 = no effect, 100 = complete control): 60%
pest or weed control at 125 g/ha ([9]; post-emergence, Postemergence, 0 to 100 scale where 0 is no effect and 100 is complete control, read-out: Plant response rating, Crabgrass, Large): 90%
pest or weed control at 500 g/ha ([9]; post-emergence, Postemergence, visual injury, 0 to 100 scale (0 no effect, 100 complete control), approx. ten days, read-out: Crabgrass, Large plant response rating): 90%
pest or weed control at 125 g/ha [9, 20]: 100%
pest or weed control at 500 g/ha [9, 20]: 100%
pest or weed control at 125 g/ha ([10]; post-emergence, Postemergence, 0 to 100 scale where 0 is no effect and 100 is complete control, read-out: Plant response rating, Morningglory): 100%
pest or weed control at 500 g/ha ([10]; post-emergence, Postemergence, visual injury, 0 to 100 scale (0 no effect, 100 complete control), approx. ten days, read-out: Morningglory plant response rating): 100%
pest or weed control at 125 g/ha [10, 21]: 70%
pest or weed control at 500 g/ha [10, 21]: 90%
pest or weed control at 125 g/ha ([11]; post-emergence, Postemergence, 0 to 100 scale where 0 is no effect and 100 is complete control, read-out: Plant response rating, Foxtail, Giant): 100%
pest or weed control at 500 g/ha ([11]; post-emergence, Postemergence, visual injury, 0 to 100 scale (0 no effect, 100 complete control), approx. ten days, read-out: Foxtail, Giant plant response rating): 100%
pest or weed control at 125 g/ha [11, 22]: 90%
pest or weed control at 500 g/ha [11, 22]: 100%
